# Experimental data taken from US20240139376A1, “RECONSTITUTION OF EXTRACELLULAR MATRIXES FOR MUSCULOSKELETAL JOINT TISSUE REPAIR USING BIOMIMETIC BIOLOGIC AND SYNTHETIC FACTORS” (Rhode Island Hospital, priority 2021, published 2024).
# Columns and labels:
# [1] = test system: Human CPCs; experiment: RT-qPCR of chondrogenic and hypertrophy markers after KGN treatment, CPCs; assay type: cell-based
# Protocol: (§1) 1 μM KGN enhances chondrogenesis of CPCs but not MSCs. The following materials and methods were used to generate the data described herein. Human CPCs and bone marrow derived mesenchymal stem cells (BM-MSCs) were cultured at 40,000 cells/well for 3 days or 22,000 cells/well for 10 days on 12-well plates. Cells were either untreated or treated with 500 nM, 1 μM, 10 μM, or 100 μM KGN (Sigma-Aldrich) at N=5 for each treatment group. At experimental endpoint following KGN treatment, RT-qPCR was used the measure expression of chondrogenic markers SRY-Box Transcription Factor 9 (SOX9), collagen 2 (COL2), collagen 1 (COL1) (FIG. 3A) as well as hypertrophy and catabolism markers, associated with development of osteoarthritis, collagen 10 (COL10), matrix metallopeptidase 13 (MMP13), Runt-related transcription factor 2 (RUNX2) (FIG. 3B).
# (§2) Human CPCs and BM-MSCs were cultured at 40,000 cells/well for 3 days or 22,000 cells/well for 10 days on 12-well plates. Cells were either untreated or treated with 500 nM, 1 uM, 10 uM, or 100 uM KGN (Sigma-Aldrich) at N=5 for each treatment group. At experimental endpoint following KGN treatment, RT-qPCR was used the measure expression of chondrogenic markers SOX9, COL2, COL1 as well as hypertrophy and catabolism markers COL10, MMP13, RUNX2. CPCs and BM-MSCs were cultured again at 22,000 cell/swell for 10 days in 12-well plates and again treated with KGN. At 5 and 10 days of treatment, cell culture supernatant was collected, with cell media and KGN replenished at the 5-day timepoint (N=3). Supernatants were used to perform ELISA for measuring MMP13 protein. At day 10, cell culture plates were stained for Alcian Blue (N=4). The color was extracted and the absorbances were quantified via spectrophotometry, to assess acidic glycosaminoglycans (GAG) and hyaluronan (HA). In analysis, within and between group differences were assessed through 2-way ANOVA with Dunnett's multiple comparisons test. Significant differences are signified by p-values≤0.05.
# [2] = test system: BM-MSCs; experiment: ELISA for MMP13 protein in cell culture supernatant, BM-MSCs; assay type: cell-based, Human
# Protocol: (§3) CPCs and BM-MSCs were cultured again at 22,000 cell/swell for 10 days in 12-well plates and again treated with KGN. At 5 and 10 days of treatment, cell culture supernatant was collected, with cell media and KGN replenished at the 5-day timepoint (N=3). Supernatants were used to perform ELISA for measuring MMP13 protein. At day 10, cell culture plates were stained for Alcian Blue (N=4). The color was extracted and the absorbances were quantified via spectrophotometry, to assess acidic glycosaminoglycans (GAG) and hyaluronan (HA). In analysis, within and between group differences were assessed through 2-way ANOVA with Dunnett's multiple comparisons test. Significant differences are signified by p-values ≤0.05.
# as §2
# [3] = test system: Human CPCs; experiment: ELISA for MMP13 protein in cell culture supernatant, CPCs; assay type: cell-based; settings: all treatment groups
# Protocol: as §3
# (§4) Human CPCs and BM-MSCs were cultured at 40,000 cells/well for 3 days or 22,000 cells/well for 10 days on 12-well plates. Cells were either untreated or treated with 500 nM, 1 uM, 10 uM, or 100 uM KGN (Sigma-Aldrich) at N=5 for each treatment group. […] The color was extracted and the absorbances were quantified via spectrophotometry, to assess acidic glycosaminoglycans (GAG) and hyaluronan (HA). In analysis, within and between group differences were assessed through 2-way ANOVA with Dunnett's multiple comparisons test. […]
# [4] = test system: BM-MSCs; experiment: Alcian Blue staining (GAG and HA), BM-MSCs; assay type: cell-based, Human; settings: 10 days
# Protocol: as §3, §4
# [5] = test system: bone marrow derived mesenchymal stem cells (BM-MSCs); experiment: RT-qPCR of chondrogenic and hypertrophy markers after KGN treatment, BM-MSCs; assay type: cell-based, Human
# Protocol: as §1, §2
# [6] = test system: Human CPCs; experiment: Alcian Blue staining (GAG and HA), CPCs; assay type: cell-based; settings: 1 μM KGN, 10 days, p<0.05
# Protocol: as §3, §4
compound,measurement,setting,value
"O=C(O)c1ccccc1C(=O)Nc1ccc(-c2ccccc2)cc1 [KGN, kartogenin]",expression of MMP13,"[1]; 1 μM KGN, 3 days",increased
same,expression of RUNX2,"[1]; 1 μM KGN, 3 days",increased
same,expression of RUNX2,"[1]; 10 μM KGN, 3 days",increased
same,expression of RUNX2,"[1]; 100 μM KGN, 3 days",increased
same,upregulation of COL2 mRNA,"[1]; CPCs, 1 μM KGN, 3 days, p<0.0001",2 fold
same,upregulation of SOX9 mRNA,"[1]; CPCs, 1 μM KGN, 3 days, p<0.05",2 fold
same,upregulation of COL2 mRNA,"[1]; CPCs, 1 μM KGN, 10 days, p<0.05",maintained
same,protein levels of MMP13,"[2]; 10 μM KGN, 0-5 days, p<0.001",significant decrease
same,protein levels of MMP13,"[2]; 10 μM KGN, 5-10 days, p<0.05",significant decrease
same,protein levels of MMP13,"[2]; 100 μM KGN, 0-5 days, p<0.0001",significant decrease
same,protein levels of MMP13,"[2]; 100 μM KGN, 5-10 days, p<0.0001",significant decrease
same,MMP13 protein in supernatant,[3]; 0-5 days KGN treatment,undetectable
same,MMP13 protein in supernatant,[3]; 6-10 days KGN treatment,undetectable
same,Alcian Blue staining intensity vs untreated,"[4]; 10 μM KGN, p<0.05",stained more intensely
same,Alcian Blue staining intensity vs untreated,"[4]; 100 μM KGN, p<0.0001",stained more intensely
same,expression of COL10,"[5]; 100 μM KGN, 10 days, p<0.05",significantly reduced
same,expression of MMP13,"[5]; 100 μM KGN, 10 days, p<0.05",significantly reduced
same,expression of COL1,[5]; KGN,did not increase
same,expression of COL2,[5]; KGN,did not increase
same,expression of SOX9,[5]; KGN,did not increase
same,Alcian Blue staining intensity vs untreated,[6],increased intensity
